Literature values as cited in patent EP1358311B1, “CLEANING COMPOSITIONS” (Unilever N.V., priority 2001, dated 2002).

Conditions: for Water Solubility (g/100g): at 20°C, other common materials, listed by contrast

O=P(O)(O)OP(=O)(O)OP(=O)(O)O [Sodium tripolyphosphate anhydrous]
Water Solubility (g/100g): 15 g/100g

O=BO[O-].[Na+] [Sodium perborate anhydrous]
Water Solubility (g/100g): 3.7 g/100g

NC(N)=O [Urea]
Water Solubility (grams/100 grams water) (saturated solution in 100 grams of deionised water at 20°C, highly water-soluble materials): >100 grams/100 grams water
